Source: US6030960A, “Method of treating hepatitis virus infections” (priority 1998, dated 2000)
“And” between values parts separate entries of the source, which are not always exact repeats. Equal values may be shown once. Read-outs that look alike come from different tables or passages of the source.

Experiments:
Format in all cases: cell-based
[1] = Cytotoxicity of alkyl lipids, neutral red dye uptake (Table 1); settings: human, hep-g2 cells
From the text: (§1) Initially, evaluations of the alkyl lipids were done to determine whether the compounds were cytotoxic to the cells at concentrations having anti-HBV activity. The assay methodology is szt forth in Korba and Germ, Antiviral Res., 19, 55-70 (1992), incorporated by reference herein. Briefly, these cell cytotoxicity evaluations were done in 96-well plates seeded with HEP-G2 cell monolayers. The hepatoblastoma cell line HEP-G2 transfected with a plasmid carrying the gene that confers resistance to […] and four 5'-3' tandem copies of the Hepatitis B virus genome was obtained from Dr. George Acs. Proc. Natl. Acad. Sci. USA, 84, 1005-1009 (1987). Serial concentrations of compound were added to the RPMI-1640 growth medium and the growth medium was added to the 96-well plates containing the cell monolayers. The cells were incubated for a total of nine days at 37° C. The compound-containing medium was periodically replaced. Each compound was tested at four serial concentrations in triplicate. After nine days of treatment and incubation, 0.01% neutral red dye (Sigma, Inc.) was added to the overlay medium. Cell cytotoxicity was quantitated by measuring the average A510. Values in Table 1 represent the percentage of average A510 values (±standard deviation) relative to nine non-treated control wells.

Hepatitis B virus [2] = experiment: Anti-hepatitis B virus activity in HEP-G2 cells persistently infected with HBV (Table 2); settings: Hepatitis B virus, HepG2, 216 h, 10 μM, 9 days treatment
Procedure: HEP-G2 cells persistently infected with HBV were treated daily with fresh D-MEM containing 20% FBS and 10 μM compound. After 9 days incubation and treatment, the overlay medium was harvested to assay the quantity of Hepatitis B virus s antigen (HBsAg) and HBeAg by EIA (Abbott Laboratories). The overlay medium was diluted to levels of antigen in the linear range of the assay. Standard curves using dilutions of positive HBsAg and HBeAg controls were included in each assay. Virion DNA was assayed using the method set forth in Korba and Gerin, Antiviral Res., 19, 5,5-70 (1992), incorporated by reference herein. HBV DNA was extracted from the overlay medium containing virus particles and analyzed by a slot-blot hybridization technique using ^32 P-labelled 3.2 Kb Eco R1 HBV DNA fragment by comparisons to HBV standards present on nitrocellulose filters using an AMBIS beta scanner. EC90 values (90% effective concentration, i.e., drug concentration which induces a 90% decrease in the levels of HBV DNA replication intermediates in treated versus control cells) were calculated by linear regression analysis. The relative levels of HBsAg, HBeAg and virion DNA were calulated as a percentage of the average levels obtained from the untreated controls.

[3] = Cytotoxicity in HBV persistently infected human HEP G2 cells, neutral red dye uptake (Table 5); settings: human, hep-g2 cells
From the text: as §1
(§2) An analysis was periormed to determine the cytotoxicity of the following compounds in human HEP-G2 cells persistently infected with HBV: CP-51, CP-49, CP-9, CP-126, lyso PAF and CP-7. 2'-3'-Dideoxycytidine (ddC) was used as a control in this cytotoxicity analysis. The toxicity analyses were performed in 96-well flat bottomed tissue culture plates following the same procedure set forth in Example 6 above. Each compound was tested at four concentrations, each in triplicate cultures. Uptake of neutral red dye was used to determine the relative level of toxicity. The absorbance of internalized dye at […] (A510) was used for the quantitative analysis.
(§3) Values are presented as a percentage of the average A510 values (± standard deviations) in ninz separate cultures of untreated cells maintained on the same 96-well plate as the test compounds. The percentage of dye uptake in the nine control cultures was 100±1.

[4] = tested on: HEP G2 cells persistently infected with HBV; experiment: as above
From the text: as §1, §2, §3

Hepatitis B virus [5] = experiment: Effect of alkyl lipids on HBV replication in HBV persistently infected human HEP G2 cells (Table 6); settings: for Intracellular HBV DNA, Mono (episomal 3.2-3.8 Kb HBV genomes) / Intracellular HBV DNA, RI (replication intermediates): nine days
Procedure: Cells were treated with a particular compound for nine days at 37° C. Analysis of intracellular HEIV DNA was done 24 hours following the ninth day of treatment. […] The levels of integrated HBV DNA in each cellular DNA preparation were used to calculate the levels of episomal 3.2-3.8 Kb HBV genomes (Mono) and HBV DNA replication intermediates (RI). A zero value indicates an undetectable level of HBV virion DNA. The sensitivity cut-off was 0.1 pg DNA/ml of culture medium.

Hepatitis B virus [6] = experiment: Effect on synthesis of antigen markers in persistently infected human HEP G2 cell cultures (Table 7); settings: for Relative Level of HBeAg / Relative Level of HBsAg / Relative Level of Virion DNA / activity at 10 µM: nine days; for Relative Level of HBeAg / Relative Level of HBsAg / Relative Level of Virion DNA: 12960 min; for activity at 10 µM: Hepatitis B virus, HepG2, 216 h
Procedure: Cells were treated with compound for nine days at 37° C. The overlay medium was harvested to measure levels of HBsAg, HBeAg and virion DNA. HBsAg and HBeAg were assayed by EIA (Abbott Laboratories). Virion DNA levels were measured as described in section B above.

[7] = % of Control Neutral Red Dye Uptake
[8] = 10 μM, Day 9, 0 = undetectable, cut-off 0.1 pg DNA/ml

Compound | HBV Virion DNA (Hepatitis B virus [5]; 0.1 μM, Day 0) | HBV Virion DNA (Hepatitis B virus [5]; 0.1 μM, Day 3) | HBV Virion DNA (Hepatitis B virus [5]; 0.1 μM, Day 6) | HBV Virion DNA (Hepatitis B virus [5]; 0.1 μM, Day 9) | Intracellular HBV DNA, Mono (episomal 3.2-3.8 Kb HBV genomes) (Hepatitis B virus [5]; 0.1 μM) | Intracellular HBV DNA, RI (replication intermediates) (Hepatitis B virus [5]; 0.1 μM) | HBV Virion DNA (Hepatitis B virus [5]; 1 μM, Day 0) | HBV Virion DNA (Hepatitis B virus [5]; 1 μM, Day 3) | HBV Virion DNA (Hepatitis B virus [5]; 1 μM, Day 6) | HBV Virion DNA (Hepatitis B virus [5]; 1 μM, Day 9) | Intracellular HBV DNA, Mono (episomal 3.2-3.8 Kb HBV genomes) (Hepatitis B virus [5]; 1 μM) | Intracellular HBV DNA, RI (replication intermediates) (Hepatitis B virus [5]; 1 μM) | HBV Virion DNA (Hepatitis B virus [5]; 10 μM, Day 0) | HBV Virion DNA (Hepatitis B virus [5]; 10 μM, Day 3) | HBV Virion DNA (Hepatitis B virus [5]; 10 μM, Day 6) | HBV Virion DNA (Hepatitis B virus [5]; [8]) | Intracellular HBV DNA, Mono (episomal 3.2-3.8 Kb HBV genomes) (Hepatitis B virus [5]; 10 μM) | Intracellular HBV DNA, RI (replication intermediates) (Hepatitis B virus [5]; 10 μM) | Relative Level of HBeAg (Hepatitis B virus [6]; 10 μM) | Relative Level of HBsAg (Hepatitis B virus [6]; 10 μM) | further results
CCCCCCCCCCCCCCCCSCC(C[N+](C)(C)CCO)OC (racemic) [CP-7, N-[rac-3-(hexadecylthio)-2-methoxy-1-propyl]-N,N-dimethyl-N-(2-hydroxyethyl) ammonium bromide] | 51 pg/ml Culture Medium and 77 pg/ml Culture Medium and 64 pg/ml Culture Medium | 72 pg/ml Culture Medium and 75 pg/ml Culture Medium and 66 pg/ml Culture Medium and 51 pg/ml Culture Medium | 58 pg/ml Culture Medium and 65 pg/ml Culture Medium and 98 pg/ml Culture Medium and 75 pg/ml Culture Medium | 57 pg/ml Culture Medium and 89 pg/ml Culture Medium and 84 pg/ml Culture Medium and 76 pg/ml Culture Medium | 2.5 pg/μg Cell DNA and 2.6 pg/μg Cell DNA and 2.8 pg/μg Cell DNA and 2.3 pg/μg Cell DNA | 73 pg/μg Cell DNA and 62 pg/μg Cell DNA and 57 pg/μg Cell DNA and 76 pg/μg Cell DNA | 53 pg/ml Culture Medium and 64 pg/ml Culture Medium and 54 pg/ml Culture Medium | 56 pg/ml Culture Medium and 51 pg/ml Culture Medium and 66 pg/ml Culture Medium and 58 pg/ml Culture Medium | 46 pg/ml Culture Medium and 52 pg/ml Culture Medium and 59 pg/ml Culture Medium | 48 pg/ml Culture Medium and 44 pg/ml Culture Medium and 49 pg/ml Culture Medium and 41 pg/ml Culture Medium | 2.7 pg/μg Cell DNA and 2.2 pg/μg Cell DNA and 2.3 pg/μg Cell DNA and 2.4 pg/μg Cell DNA | 70 pg/μg Cell DNA and 75 pg/μg Cell DNA and 63 pg/μg Cell DNA and 68 pg/μg Cell DNA | 49 pg/ml Culture Medium and 63 pg/ml Culture Medium and 70 pg/ml Culture Medium and 65 pg/ml Culture Medium | 70 pg/ml Culture Medium and 64 pg/ml Culture Medium and 67 pg/ml Culture Medium and 59 pg/ml Culture Medium | 35 pg/ml Culture Medium and 28 pg/ml Culture Medium and 33 pg/ml Culture Medium | 8 pg/ml Culture Medium and 9 pg/ml Culture Medium and 7 pg/ml Culture Medium | 2.3 pg/μg Cell DNA and 2.6 pg/μg Cell DNA and 2.5 pg/μg Cell DNA | 11 pg/μg Cell DNA and 13 pg/μg Cell DNA and 10 pg/μg Cell DNA and 14 pg/μg Cell DNA | 40 % of Untreated Control | 69 % of Untreated Control | cytotoxicity at 216 h, 30 µM [1]: 33%; viability at 216 h, 3 µM [1]: 98 ± 2%; viability at 216 h, 10 µM [1]: 102 ± 6%; viability at 216 h, 30 µM [1]: 67 ± 3%; viability at 216 h, 100 µM [1]: 24 ± 2%; activity at 10 µM (Hepatitis B virus [2]; read-out: Relative Level of HBeAg): 43%; activity at 10 µM (Hepatitis B virus [2]; read-out: Relative Level of HBsAg): 74%; activity at 10 µM (Hepatitis B virus [2]; read-out: Relative Level of Virion DNA): 10%; viability at 216 h, 3 µM [3, 7]: 98 ± 2%; viability at 216 h, 10 µM [3, 7]: 102 ± 6%; viability at 216 h, 30 µM [3, 7]: 67 ± 3%; viability at 216 h, 100 µM [3, 7]: 24 ± 2%; Cell toxicity (greater than 50% depression of dye uptake) [4]: did not occur; Relative Level of Virion DNA (Hepatitis B virus [6]; 10 μM): 10 % of Untreated Control; activity at 10 µM (Hepatitis B virus [6]; 10 μM, read-out: Relative Level of HBeAg): 46%; activity at 10 µM (Hepatitis B virus [6]; 10 μM, read-out: Relative Level of HBsAg): 79%; activity at 10 µM (Hepatitis B virus [6]; 10 μM, read-out: Relative Level of Virion DNA): 9%
CCCCCCCCCCCCOCC(COP(=O)(O)OC[C@H]1O[C@@H](n2cc(C)c(=O)[nH]c2=O)C[C@@H]1N=[N+]=[N-])OCCCCCCCCCC (mixture of isomers) [CP-126, 3'-Azido-3'-deoxy-5'-(rac-3-dodecyloxy-2-decyloxy-1-propyl) phosphothymidine] | 50 pg/ml Culture Medium and 52 pg/ml Culture Medium and 54 pg/ml Culture Medium and 60 pg/ml Culture Medium | 77 pg/ml Culture Medium and 79 pg/ml Culture Medium and 67 pg/ml Culture Medium and 65 pg/ml Culture Medium | 61 pg/ml Culture Medium and 72 pg/ml Culture Medium and 83 pg/ml Culture Medium and 66 pg/ml Culture Medium | 78 pg/ml Culture Medium and 64 pg/ml Culture Medium and 82 pg/ml Culture Medium and 77 pg/ml Culture Medium | 2.2 pg/μg Cell DNA and 2.6 pg/μg Cell DNA and 2.4 pg/μg Cell DNA | 64 pg/μg Cell DNA and 54 pg/μg Cell DNA and 70 pg/μg Cell DNA and 89 pg/μg Cell DNA | 67 pg/ml Culture Medium and 54 pg/ml Culture Medium and 70 pg/ml Culture Medium and 69 pg/ml Culture Medium | 49 pg/ml Culture Medium and 57 pg/ml Culture Medium and 65 pg/ml Culture Medium and 53 pg/ml Culture Medium | 40 pg/ml Culture Medium and 39 pg/ml Culture Medium and 44 pg/ml Culture Medium and 48 pg/ml Culture Medium | 28 pg/ml Culture Medium and 20 pg/ml Culture Medium and 22 pg/ml Culture Medium and 26 pg/ml Culture Medium | 2.3 pg/μg Cell DNA and 2.7 pg/μg Cell DNA and 2.1 pg/μg Cell DNA and 1.8 pg/μg Cell DNA | 51 pg/μg Cell DNA and 67 pg/μg Cell DNA and 56 pg/μg Cell DNA and 61 pg/μg Cell DNA | 60 pg/ml Culture Medium and 62 pg/ml Culture Medium and 59 pg/ml Culture Medium and 51 pg/ml Culture Medium | 59 pg/ml Culture Medium and 50 pg/ml Culture Medium and 55 pg/ml Culture Medium and 66 pg/ml Culture Medium | 20 pg/ml Culture Medium and 21 pg/ml Culture Medium and 26 pg/ml Culture Medium and 29 pg/ml Culture Medium | 13 pg/ml Culture Medium and 8 pg/ml Culture Medium and 9 pg/ml Culture Medium and 12 pg/ml Culture Medium | 1.9 pg/μg Cell DNA and 2.5 pg/μg Cell DNA and 2.0 pg/μg Cell DNA and 2.3 pg/μg Cell DNA | 14 pg/μg Cell DNA and 9 pg/μg Cell DNA and 12 pg/μg Cell DNA and 16 pg/μg Cell DNA | 42 % of Untreated Control | 69 % of Untreated Control | viability at 216 h, 3 µM ([3]; Trial 2, 3 μM, read-out: % of Control Neutral Red Dye Uptake): 100 ± 1%; viability at 216 h, 10 µM ([3]; Trial 2, 10 μM, read-out: % of Control Neutral Red Dye Uptake): 97 ± 3%; viability at 216 h, 30 µM ([3]; Trial 2, 30 μM, read-out: % of Control Neutral Red Dye Uptake): 68 ± 1%; viability at 216 h, 100 µM ([3]; Trial 2, 100 μM, read-out: % of Control Neutral Red Dye Uptake): 20 ± 2%; Cell toxicity (greater than 50% depression of dye uptake) ([4]; at concentrations with strong or moderate antiviral activity): did not occur; inhibition of HBV replication (Hepatitis B virus [5]; in words): moderately inhibitory of HBV replication; Relative Level of Virion DNA (Hepatitis B virus [6]; 10 μM): 14 % of Untreated Control; activity at 10 µM (Hepatitis B virus [6]; read-out: Relative Level of HBeAg, 10 μM): 35%; activity at 10 µM (Hepatitis B virus [6]; read-out: Relative Level of HBsAg, 10 μM): 65%; activity at 10 µM (Hepatitis B virus [6]; read-out: Relative Level of Virion DNA, 10 μM): 10%; effect on HBsAg levels released into the culture medium (Hepatitis B virus [6]; in words): None of the compounds tested; reduction in HBeAg and virion DNA levels (Hepatitis B virus [6]; in words): caused a reduction
